IC50, AC50 and EC50 data for five compounds are collected here from ChEMBL document CHEMBL1201862, “PubChem BioAssay data set” (2004).

Activity calls are given as the source filed them.

Broadly, the AC50 is the concentration giving half of the maximal activity seen.

Assay [1] has as its target DNA dC->dU-editing enzyme APOBEC-3G (Homo sapiens, UniProt Q9HC16). Description: APOBEC3G deaminase inhibitors, SAR follow-up, biochemical, fluorescence, single-stranded DNA substrate (AID 602136). The format is functional. The conditions noted are these: read-out: IC50_Mean.
The target of assay [2] is DNA dC->dU-editing enzyme APOBEC-3A (Homo sapiens, UniProt P31941). Description: SAR analysis of small molecule inhibitors of APOBEC3A DNA Deaminase via a fluorescence-based single-stranded DNA deaminase assay. Type of assay: functional. Particulars: read-out: IC50_Mean.
DNA dC->dU-editing enzyme APOBEC-3A, sequence (P31941 whole entry): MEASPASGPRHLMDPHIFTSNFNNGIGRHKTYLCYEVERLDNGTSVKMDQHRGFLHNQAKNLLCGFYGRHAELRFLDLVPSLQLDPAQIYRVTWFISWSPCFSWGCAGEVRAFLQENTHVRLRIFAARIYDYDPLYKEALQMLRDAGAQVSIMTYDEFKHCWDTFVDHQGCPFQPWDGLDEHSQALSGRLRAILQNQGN
In assay [3] the target is 72 kDa type IV collagenase (Homo sapiens, UniProt P08253). Description: Dose Response validation of uHTS RPN11 inhibitor hits using a MMP-2 Fluorescence assay. Type of assay: functional.
72 kDa type IV collagenase, sequence (P08253 whole entry): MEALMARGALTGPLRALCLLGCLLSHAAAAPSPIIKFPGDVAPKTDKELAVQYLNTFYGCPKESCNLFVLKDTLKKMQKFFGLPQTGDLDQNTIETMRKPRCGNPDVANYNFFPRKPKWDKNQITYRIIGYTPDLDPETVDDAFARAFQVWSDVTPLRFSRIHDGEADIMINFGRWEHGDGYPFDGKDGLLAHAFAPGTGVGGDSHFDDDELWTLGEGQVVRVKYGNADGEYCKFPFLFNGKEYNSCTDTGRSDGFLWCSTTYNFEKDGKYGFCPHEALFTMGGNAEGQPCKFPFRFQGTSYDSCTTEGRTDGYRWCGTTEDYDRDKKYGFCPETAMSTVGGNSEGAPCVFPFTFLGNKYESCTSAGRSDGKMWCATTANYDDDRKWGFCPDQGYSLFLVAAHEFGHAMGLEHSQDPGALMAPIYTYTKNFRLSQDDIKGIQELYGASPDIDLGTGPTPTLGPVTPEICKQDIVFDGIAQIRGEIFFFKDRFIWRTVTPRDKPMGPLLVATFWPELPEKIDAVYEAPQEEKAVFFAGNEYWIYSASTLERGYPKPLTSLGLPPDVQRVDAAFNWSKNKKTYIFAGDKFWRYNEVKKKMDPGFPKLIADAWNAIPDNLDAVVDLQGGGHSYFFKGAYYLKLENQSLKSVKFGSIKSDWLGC
The next assay deals with T1, Aminopeptidase N (Plasmodium falciparum FcB1/Columbia, UniProt O96935).
T1 sequence (O96935 whole entry): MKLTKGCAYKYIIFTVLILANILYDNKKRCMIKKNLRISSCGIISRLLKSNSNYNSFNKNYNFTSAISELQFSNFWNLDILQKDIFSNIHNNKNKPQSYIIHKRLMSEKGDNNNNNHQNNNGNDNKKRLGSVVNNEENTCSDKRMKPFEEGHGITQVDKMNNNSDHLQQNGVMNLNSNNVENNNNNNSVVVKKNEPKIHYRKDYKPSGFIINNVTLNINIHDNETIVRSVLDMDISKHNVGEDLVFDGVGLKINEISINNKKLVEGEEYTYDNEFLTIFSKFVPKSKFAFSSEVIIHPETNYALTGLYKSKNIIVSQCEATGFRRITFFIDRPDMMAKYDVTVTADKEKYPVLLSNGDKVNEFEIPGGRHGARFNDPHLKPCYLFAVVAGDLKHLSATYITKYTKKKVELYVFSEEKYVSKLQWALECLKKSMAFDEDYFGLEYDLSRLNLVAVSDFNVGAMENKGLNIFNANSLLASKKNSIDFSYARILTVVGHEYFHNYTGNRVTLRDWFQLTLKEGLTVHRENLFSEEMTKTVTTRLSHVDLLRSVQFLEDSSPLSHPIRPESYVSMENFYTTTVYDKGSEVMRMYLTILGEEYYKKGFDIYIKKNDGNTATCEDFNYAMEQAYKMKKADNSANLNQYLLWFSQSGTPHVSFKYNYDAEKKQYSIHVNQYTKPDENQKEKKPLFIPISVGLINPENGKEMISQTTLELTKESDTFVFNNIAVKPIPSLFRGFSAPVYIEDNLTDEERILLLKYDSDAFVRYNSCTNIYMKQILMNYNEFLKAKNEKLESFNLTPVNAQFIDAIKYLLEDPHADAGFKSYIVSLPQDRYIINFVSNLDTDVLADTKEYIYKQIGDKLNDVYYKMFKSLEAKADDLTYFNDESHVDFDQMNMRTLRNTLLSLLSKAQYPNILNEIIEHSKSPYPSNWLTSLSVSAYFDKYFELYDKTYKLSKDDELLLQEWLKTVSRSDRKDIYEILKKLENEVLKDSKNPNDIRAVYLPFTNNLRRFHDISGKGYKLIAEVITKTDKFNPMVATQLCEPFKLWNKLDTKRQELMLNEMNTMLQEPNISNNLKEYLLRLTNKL
In words: P. falciparum M1AAP inhibitors, biochemical, fluorogenic H-Leu-NHMec substrate, 1536-well (AID 1445). On the set-up: species or system Plasmodium falciparum 3D7, 3D7.

The target of assay [4] is T2, Rac GTPase-activating protein 1 (Homo sapiens, UniProt Q9H0H5).
T2 sequence (Q9H0H5 whole entry): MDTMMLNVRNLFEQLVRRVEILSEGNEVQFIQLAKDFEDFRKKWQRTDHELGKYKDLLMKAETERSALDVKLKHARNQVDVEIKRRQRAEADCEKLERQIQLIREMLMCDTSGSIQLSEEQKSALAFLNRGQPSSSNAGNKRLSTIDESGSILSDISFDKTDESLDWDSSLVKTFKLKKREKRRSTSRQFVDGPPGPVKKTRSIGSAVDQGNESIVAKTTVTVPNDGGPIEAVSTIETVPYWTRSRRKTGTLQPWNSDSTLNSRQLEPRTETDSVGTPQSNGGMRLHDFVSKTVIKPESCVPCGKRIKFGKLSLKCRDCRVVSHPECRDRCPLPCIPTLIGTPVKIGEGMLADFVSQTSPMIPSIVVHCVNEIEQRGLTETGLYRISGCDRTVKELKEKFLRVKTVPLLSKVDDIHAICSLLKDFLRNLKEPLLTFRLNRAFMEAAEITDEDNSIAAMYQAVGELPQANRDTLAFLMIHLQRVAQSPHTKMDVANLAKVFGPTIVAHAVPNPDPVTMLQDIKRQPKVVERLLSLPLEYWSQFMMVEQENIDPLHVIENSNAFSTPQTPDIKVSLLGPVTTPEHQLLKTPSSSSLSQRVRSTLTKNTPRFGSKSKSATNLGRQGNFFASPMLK
Description: MgcRacGAP GTPase-activating activity inhibitors, confirmation, biochemical, ADP Hunter fluorescence, primary and confirmatory (AID 624330). The format is functional.

A further assay addresses Prothrombin (Bos taurus, UniProt P00735). In words: thrombin inhibition, dose response, biochemical, fluorescence polarization, uHTS hits (AID 602369). Type of assay: functional.
Assay [5] can be described thus: CFTR ΔF508 corrector activity in bronchial cells, dose response, human bronchial epithelial cells, plate reader, cherry-pick, two tests (AID 743267). The format is functional, cell-based.
Assay [6] concerns the target 26S proteasome non-ATPase regulatory subunit 14 (Homo sapiens, UniProt O00487). In words: inhibition of proteasome subunit RPN11 – biochemical, fluorescence polarization, uHTS hits, confirmation (AID 602368). The format is functional. (In general: Fluorescence polarisation rises when a labelled molecule tumbles more slowly, as on binding a larger partner.)
The target in assay [7] is T3, CAAX prenyl protease 2 (Saccharomyces cerevisiae S288c, UniProt Q03530).
T3 sequence (Q03530 whole entry): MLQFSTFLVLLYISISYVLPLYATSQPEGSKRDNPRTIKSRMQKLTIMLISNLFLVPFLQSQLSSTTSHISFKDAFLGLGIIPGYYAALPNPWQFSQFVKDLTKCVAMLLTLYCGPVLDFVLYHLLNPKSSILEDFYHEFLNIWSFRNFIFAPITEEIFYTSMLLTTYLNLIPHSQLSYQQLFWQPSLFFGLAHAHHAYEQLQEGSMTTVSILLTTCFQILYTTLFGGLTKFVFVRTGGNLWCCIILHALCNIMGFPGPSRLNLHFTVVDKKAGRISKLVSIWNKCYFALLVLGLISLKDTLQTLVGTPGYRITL
The format is biochemical.

The target in the next assay is T4, Cytochrome P450 1A2 (Homo sapiens, UniProt P05177).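 Note: PubChem cytochrome P450 panel assay, CYP1A2 panel member.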
T4 sequence (P05177 whole entry): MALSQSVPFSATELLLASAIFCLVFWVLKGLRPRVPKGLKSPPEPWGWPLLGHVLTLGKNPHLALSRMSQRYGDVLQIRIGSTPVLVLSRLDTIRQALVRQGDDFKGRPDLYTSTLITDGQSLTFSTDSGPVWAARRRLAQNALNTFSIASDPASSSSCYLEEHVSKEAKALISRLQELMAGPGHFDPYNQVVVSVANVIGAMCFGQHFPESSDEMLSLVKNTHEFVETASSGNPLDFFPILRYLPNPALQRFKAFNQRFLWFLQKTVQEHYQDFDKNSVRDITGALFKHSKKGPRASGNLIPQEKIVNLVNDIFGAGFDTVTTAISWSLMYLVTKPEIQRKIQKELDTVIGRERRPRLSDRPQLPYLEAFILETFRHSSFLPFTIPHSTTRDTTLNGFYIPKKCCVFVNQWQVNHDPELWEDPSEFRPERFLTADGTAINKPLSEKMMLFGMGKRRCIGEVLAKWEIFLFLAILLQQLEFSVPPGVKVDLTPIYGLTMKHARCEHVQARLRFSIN

Assay [8] has as its target T3, CAAX prenyl protease 2. Description: yeast Rce1 CaaX protease inhibitors, dose response, biochemical, plate reader, dry powder retest (AID 588851).
The target in assay [9] is T5, CAAX prenyl protease 2 (Homo sapiens, UniProt Q9Y256).
T5 sequence (Q9Y256 whole entry): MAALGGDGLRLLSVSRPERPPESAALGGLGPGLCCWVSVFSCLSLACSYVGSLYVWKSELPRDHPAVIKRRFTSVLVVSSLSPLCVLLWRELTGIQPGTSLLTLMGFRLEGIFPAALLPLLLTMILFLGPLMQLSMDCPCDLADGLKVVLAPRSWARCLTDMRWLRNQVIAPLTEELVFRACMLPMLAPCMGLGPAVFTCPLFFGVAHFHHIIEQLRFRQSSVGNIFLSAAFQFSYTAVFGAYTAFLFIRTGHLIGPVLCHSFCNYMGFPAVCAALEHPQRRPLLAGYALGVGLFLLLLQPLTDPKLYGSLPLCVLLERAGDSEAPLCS
Description: human Rce1 protease inhibitors, dose response, biochemical, plate reader, dry powder samples (AID 588848).

The target in another assay is Trypsin (Sus scrofa, UniProt P00761). Description: porcine trypsin inhibitors, dose response, selectivity assay for Rce1 protease inhibitor project, biochemical, quenched peptide fluorescence, cherry-pick (AID 488789).
Trypsin, sequence (P00761 whole entry): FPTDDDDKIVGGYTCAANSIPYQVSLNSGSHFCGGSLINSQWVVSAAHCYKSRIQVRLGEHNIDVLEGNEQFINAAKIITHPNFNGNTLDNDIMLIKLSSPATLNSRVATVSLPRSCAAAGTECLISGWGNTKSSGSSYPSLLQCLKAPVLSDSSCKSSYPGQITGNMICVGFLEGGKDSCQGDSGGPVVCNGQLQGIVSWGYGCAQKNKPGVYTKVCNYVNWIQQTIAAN
Assay [10] has as its target Protein disulfide-isomerase (Homo sapiens, UniProt P07237). In words: PDI inhibitors, insulin aggregation turbidity, dose response, biochemical, absorbance, cherry-picked samples (AID 602350). The format is functional.
Assay [11] concerns the target Botulinum neurotoxin type A (Clostridium botulinum (strain Hall / ATCC 3502 / NCTC 13319 / Type A), UniProt P0DPI1). Description: High-throughput multiplex microsphere dose response for inhibitors of toxin protease, specifically Botulinum neurotoxin light chain A protease, compounds from Cherry Pick 01. Type of assay: functional. Particulars: read-out: EC50_MICROM.

DNA dC->dU-editing enzyme APOBEC-3G, sequence (Q9HC16 whole entry): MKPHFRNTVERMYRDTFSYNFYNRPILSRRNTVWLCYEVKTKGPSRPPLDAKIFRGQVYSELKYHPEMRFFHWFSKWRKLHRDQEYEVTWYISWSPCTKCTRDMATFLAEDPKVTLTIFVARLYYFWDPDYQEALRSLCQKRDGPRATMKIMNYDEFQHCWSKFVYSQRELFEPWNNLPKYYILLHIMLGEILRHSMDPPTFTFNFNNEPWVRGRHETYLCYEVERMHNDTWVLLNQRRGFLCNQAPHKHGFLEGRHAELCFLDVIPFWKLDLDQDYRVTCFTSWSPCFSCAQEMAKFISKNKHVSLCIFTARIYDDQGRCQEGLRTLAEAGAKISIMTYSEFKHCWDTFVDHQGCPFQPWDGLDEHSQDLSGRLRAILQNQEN
Protein disulfide-isomerase, sequence (P07237 whole entry): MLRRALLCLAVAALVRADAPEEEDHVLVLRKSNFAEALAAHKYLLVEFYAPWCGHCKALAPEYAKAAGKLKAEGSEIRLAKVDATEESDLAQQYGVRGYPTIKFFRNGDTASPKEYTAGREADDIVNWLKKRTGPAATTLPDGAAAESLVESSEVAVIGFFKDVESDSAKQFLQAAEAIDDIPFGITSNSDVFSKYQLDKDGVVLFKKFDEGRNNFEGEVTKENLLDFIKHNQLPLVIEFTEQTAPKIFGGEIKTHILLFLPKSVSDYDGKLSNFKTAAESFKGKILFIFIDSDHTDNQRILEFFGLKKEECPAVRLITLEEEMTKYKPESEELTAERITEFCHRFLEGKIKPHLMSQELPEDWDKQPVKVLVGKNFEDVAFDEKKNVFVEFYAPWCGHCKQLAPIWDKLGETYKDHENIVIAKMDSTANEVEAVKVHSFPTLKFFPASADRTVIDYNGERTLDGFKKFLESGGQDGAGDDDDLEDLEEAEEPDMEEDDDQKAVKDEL
26S proteasome non-ATPase regulatory subunit 14, sequence (O00487 whole entry): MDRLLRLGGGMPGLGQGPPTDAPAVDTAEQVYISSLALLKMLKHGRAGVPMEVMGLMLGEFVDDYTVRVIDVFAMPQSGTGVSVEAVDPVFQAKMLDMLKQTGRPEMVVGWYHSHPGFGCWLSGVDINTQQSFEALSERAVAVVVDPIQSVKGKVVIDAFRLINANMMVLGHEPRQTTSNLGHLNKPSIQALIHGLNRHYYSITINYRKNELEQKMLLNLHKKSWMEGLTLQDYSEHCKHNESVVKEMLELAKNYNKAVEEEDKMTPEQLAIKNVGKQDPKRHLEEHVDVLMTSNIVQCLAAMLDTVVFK
Botulinum neurotoxin type A, sequence (P0DPI1 2-448 limits assumed): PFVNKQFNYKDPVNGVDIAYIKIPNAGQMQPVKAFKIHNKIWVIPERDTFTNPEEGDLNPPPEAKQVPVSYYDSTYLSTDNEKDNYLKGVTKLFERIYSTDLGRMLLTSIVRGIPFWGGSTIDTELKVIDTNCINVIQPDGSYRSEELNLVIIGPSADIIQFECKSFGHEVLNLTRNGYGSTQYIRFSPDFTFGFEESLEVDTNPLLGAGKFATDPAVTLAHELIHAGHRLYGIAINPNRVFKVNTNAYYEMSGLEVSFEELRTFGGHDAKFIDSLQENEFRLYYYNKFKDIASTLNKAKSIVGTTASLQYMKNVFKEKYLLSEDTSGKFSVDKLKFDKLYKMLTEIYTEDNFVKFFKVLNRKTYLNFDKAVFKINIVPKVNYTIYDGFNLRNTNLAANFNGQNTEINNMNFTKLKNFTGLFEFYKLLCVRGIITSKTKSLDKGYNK

As for `Cc1cc(C(=O)N2CCCC(NS(C)(=O)=O)C2)c(C)n1Cc1ccccc1` (stereo not given), the IC50 in assay [1] and in assay [2] was > 99 µM (inactive) each time.

On to `CCOc1cc(/C=C2\C(=N)N3N=C(S(=O)(=O)CC)SC3=NC2=O)ccc1O`, for which the IC50 in assay [3] was > 100 µM (inactive); on Aminopeptidase N it was 55.7 µM (active); in assay [4], 79.6 µM (active); on Prothrombin it was 34.8 µM (active); in [6] it was 28.6 µM (active). The AC50 in [5] is 24.9 µM (active).

In the case of `CCOc1cc(S(=O)(=O)N(Cc2ccccc2)Cc2ccccc2)c(OCC)cc1-n1cnnn1`, the AC50 at CAAX prenyl protease 2 [7] was 1.45 µM (active); on Cytochrome P450 1A2, 15.8 µM (inconclusive); on CAAX prenyl protease 2 [8], 16.8 µM (active); on CAAX prenyl protease 2 [9] it was 35.6 µM (active); on Trypsin it was 34 µM (active).

`COc1ccc(C(=O)Nc2ccccc2C(=O)NCc2ccco2)cc1`: in assay [10], the AC50 was 0.819 µM (active).

Turning to `COc1ccc(OC)c(-c2nc3cc4ccccc4cc3nc2-c2ccccc2)c1`, the EC50 in [11] was 17.9 µM (active).
